Experimental data published in US9486434B2, “Method for delivery and use of isothiocyanates for prophylaxis and/or therapy of bladder cancer” (Health Research Inc., priority 2010, dated 2016).
* marks the point of attachment. Cbz = O=C(OCc1ccccc1)*; CH2F = FC*

Tests used:
[1] = Conversion of sinigrin to AITC in vivo; settings: rat
[2] = system: orthotopic AY-27 bladder tumor; experiment: Orthotopic rat bladder cancer model; assay type: in vivo, rat (female F344); settings: sinigrin
Text: FIG. 6. […] Female F344 rats were inoculated intravesically with bladder cancer AY-27 cells to initiate development of orthotopic bladder tumor. Oral administration of AITC at 0, 10, 25, 50 and 300 micromols/kg once daily was started 1 day after AY-27 cell inoculation and ended 3 weeks later. The number of rats per group varied from 6 to 33; some of the data, particularly the control group (n=33) and the group treated with the lowest dose of AITC (n=23), were pooled from several experiments. A. The initial and final body weights. B. The weights of bladder tumors. […] C. Percentage of bladders where the tumor invaded the muscle tissue. D. H/E staining of the normal rat bladder wall (D1), a superficial rat bladder tumor (D2), and a rat bladder tumor that invaded the muscle layer (D3).
FIG. 8. […] Female F344 rats were inoculated with AY-27 cells intravesically via a urethra catheter to initiate development of orthotopic bladder cancer. Oral administration of MSP-1 of vehicle (water) once daily was started 1 day after cancer cell inoculation and ended 3 weeks later. The number of rats per group varied from 11-29. A. Initial (□) and final (▪) body weights. […] Each value in A and B is mean±SEM. C. Percentage of bladder where the tumor invaded the muscle tissue. D. The effects of MSP-1 on selected anticancer targets in UM-UC-3 cells (in vitro), AY-27 cells (in vitro) and AY-27 tumors (in vivo). […] The bladder tumors were removed from rats treated with MSP-1 at the sinigrin doses of 9 or 90 micromols/kg once daily for 3 weeks, started 1 day after cancer cell inoculation. Cell lysates and tumor homogenates were analyzed by Western blotting, using GAPDH as a loading control.
FIG. 9. […] Female F344 rats were inoculated with bladder cancer AY-27 cells to initiate development of orthotopic bladder tumor. Oral administration of the powder (sinigrin and glucoraphanin: each at 10 micromols/kg) once daily was started 1 day after AY-27 cell inoculation and ended 3 weeks later. The number of rats per group was 9-10. Each value is mean±SE.
FIG. 12. […] Bladder cancer was initiated in female F344 rats by orthotopic inoculation of bladder cancer AY-27 cells. Oral administration of NAC-AITC at 10 μmmol/kg body wt once daily was started 1 day after cancer cell inoculation and ended 3 weeks later. There were 23 rats in the control group and 15 rats in the treatment group. (A) The initial (open bars) and final (closed bars) body weight. (B) Bladder tumor weight. Each value is a mean±SE. (C) Percentage of bladders where the tumor invaded the muscle tissue.
AITC was evaluated in an orthotopic rat bladder cancer model. […] Daily oral administration of AITC was initiated one day after instillation of AY-27 cells and continued for 3 weeks. AITC was evaluated at 4 dose levels: 10, 25, 50 and 300 micromols/kg. […] FIG. 6D depicts representative images of normal rat bladder wall (D1), a superficial AY-27 rat bladder tumor (D2), and a muscle-invasive AY-27 rat bladder tumor (D3).
A syngeneic orthotopic rat bladder cancer model.

[3] = system: rat bladder cancer AY-27 cells; experiment: MTT cell growth and proliferation assay, AY-27 cells; assay type: cell-based; settings: sinigrin by itself, without myrosinase; result not shown
Experimental: (§1) FIG. 3. The effect of AITC on cell survival and proliferation. AITC was evaluated at the indicated concentrations in human bladder cancer UM-UC-3 cells, rat bladder cancer AY-27 cells, and normal human bladder epithelial cells (HUC). A. Cell growth inhibition, measured by MTT assay, 72-h AITC treatment. IC50 was calculated from nonlinear regression curve fit. B. Cell cycle arrest (□, subG1; ? , G1; ? , 5; ▪, G2/M), measured by flow cytometry, 24 h AITC treatment. C. Apoptosis induction, measured by an ELISA assay, 24 h AITC treatment. Mean±SE, n=3-6), *P<0.05.
(§2) FIG. 10. The effect of NAC-AITC on cell survival and proliferation. NAC-AITC was evaluated in both UM-UC-3 cells and AY-27 cells. (A) Chemical structures of AITC and NAC-AITC. (B) Cell growth and proliferation, measured by 3-([…])-2,5-diphenyltetrazolium bromide assay, 72 h treatment with AITC or NAC-AITC at indicated concentrations. IC50 was calculated from the non-linear regression curve fit. (C) Apoptosis, measured by an enzyme-linked immunosorbent assay, 24 h NAC-AITC treatment at 15 µM. (D) Cell cycle (open bars, G1; shaded bars, S; closed bars, G2/M), measured by flow cytometry, 24 h NAC-AITC treatment at 15 μM. *P<, 0.005, compared with control.
(§3) Assays for cell proliferation, cell cycle arrest and apoptosis. To determine the antiproliferative activity of NAC-AITC, AY-27 cells were grown in 96-well microtiter plates ([…] with 0.15 ml medium per well) for 24 h and then grown for 72 h in fresh medium (0.2 ml/well) containing a series of concentrations of NAC-AITC or solvent. Cell growth was measured at the end of treatment using the 3-([…])-2,5-diphenyltetrazolium bromide assay, from which the half maximal inhibitory concentration (IC50) of NAC-AITC was calculated. AITC was also evaluated for comparison.

[4] = system: human bladder cancer UM-UC-3 cells; experiment: MTT cell growth and proliferation assay, UM-UC-3 cells; assay type: cell-based; settings: sinigrin by itself, without myrosinase; result not shown
Experimental: as §1, §2, §3

[5] = system: cyclooxygenase-2 (Cox-2) in human bladder cancer HT1376 cells; experiment: Western blot analysis of Cox-2 in HT1376 cells; assay type: cell-based; settings: 24 h, cells overexpressing Cox-2
Experimental: FIG. 5. The effects of AITC and SF on cyclooxygenase-2 (Cox-2) expression in human bladder cancer cells. Human bladder cancer HT1376 cells that over express Cox-2 were treated with AITC or SF at the indicated concentrations for 24 h and then harvested for Western blot analysis of Cox-2. GAPDH is used as a loading control.

[6] = reference [18]; cited from earlier work
[7] = system: UM-UC-3 cells; experiment: Mitochondria-mediated apoptosis in UM-UC-3 cells (Δψm, cytochrome c, TUNEL); assay type: cell-based, human; settings: co-treatment, 20 microM Z-LEHD-FMK
Experimental: (§4) FIG. 4. Effect of AITC on mitosis, tubulin expression and apoptosis in human bladder cancer UM-UC-3 cells. Cells were treated with vehicle or AITC for 24 h (each numerical value is mean±SD). A. Flow cytometry analysis for cell cycle arrest. B. Wright-Giemsa staining for counting mitotic figures. Arrows point to cells in mitosis or mitotic catastrophe. C. Immunofluorescent staining of microtubules (green color) and DNA staining with DAPI (blue color). D. Western blotting of tubulins (GAPDH as a loading control). E. Loss of mitochondrial transmembrane potential (Δψm) measured by flow cytometry. F. Western blotting of caspase-9 and caspase-3 (GAPDH as a loading control). G. Apoptotic cells (TUNEL cells) measured by flow cytometry. Cells in F and G were co-treated with or without 20 microM Z-LEHD-FMK (a caspase-9 inhibitor).

[8] = system: α-tubulin, β-tubulin, γ-tubulin, caspase-9, caspase-3, VEGF in UM-UC-3 cells; experiment: Western blotting in UM-UC-3 cells (tubulins, caspases, VEGF); assay type: cell-based, human; settings: co-treatment, 20 microM Z-LEHD-FMK
Experimental: as §4
FIG. 8. Inhibition of bladder cancer development by MSP-1. Female F344 rats were inoculated with AY-27 cells intravesically via a urethra catheter to initiate development of orthotopic bladder cancer. Oral administration of MSP-1 of vehicle (water) once daily was started 1 day after cancer cell inoculation and ended 3 weeks later. The number of rats per group varied from 11-29. A. Initial (□) and final (▪) body weights. B. Tumor weight was calculated by subtracting the average normal bladder weight from tumor-bearing bladder weight. *P<0.05. Each value in A and B is mean±SEM. C. Percentage of bladder where the tumor invaded the muscle tissue. D. The effects of MSP-1 on selected anticancer targets in UM-UC-3 cells (in vitro), AY-27 cells (in vitro) and AY-27 tumors (in vivo). The cells were treated with MSP-1 at the sinigrin concentrations of 13 and 26 microM for 24 h. The bladder tumors were removed from rats treated with MSP-1 at the sinigrin doses of 9 or 90 micromols/kg once daily for 3 weeks, started 1 day after cancer cell inoculation. Cell lysates and tumor homogenates were analyzed by Western blotting, using GAPDH as a loading control.
Western blot analysis. […]

Question: For C=CCC(=NOS(=O)(=O)O)S[C@@H]1O[C@H](CO)[C@@H](O)[C@H](O)[C@H]1O (stereo in doubt) [sinigrin, reference compound], which “sinigrin converted to AITC in vivo” value [1] is on record?
Answer: 3-5%

Question: What about the “efficacy in the orthotopic rat bladder cancer model” value [2] of the same compound?
Answer: ineffective

Question: And the “activity in vitro on bladder cancer cell line” value [3]?
Answer: inactive

Question: And the “activity in vitro on bladder cancer cell line” value [4]?
Answer: inactive

Question: Which “effect on Cox-2 expression” value [5] does the source give for C[S+]([O-])CCCCN=C=S (centres unmarked) [SF, sulforaphane] here?
Answer: strongly down regulates

Question: What about the “delivery to bladder tissue” value [6] of the same compound?
Answer: selectively delivered to bladder tissue through urinary excretion

Question: With Cbz-LEHD-CH2F [reference compound] as the compound, how does the “effect on AITC-caused formation of TUNEL-positive cells” value [7] read?
Answer: completely blocked

Question: What about the “effect on AITC-caused activation of the caspases” value [8] of the same compound?
Answer: completely blocked
